Results reported in ChEMBL document CHEMBL3885861, “Open TG-GATES”.

Organism: Rattus norvegicus
Assay: Open TG-GATES - Regimen: Single
Type: toxicity, organism-based, Sprague-Dawley
Set-up: regimen Single, gender Male, age 6 weeks
Details: in vivo, po, 0 mg/kg, route gavage, dose level Control; for APTT / Bas / Eos / Fbg / Hb / Ht / Lym / MCH / MCHC / MCV / Mono / Neu / PT / Plat / RBC / Ret / WBC: tissue Blood; for KIDNEY_L / KIDNEY_R / KIDNEY_TOTAL: tissue Kidney; for LIVER: tissue Liver; for A/G / ALP / ALT / AST / BUN / CRE / Ca / Cl / DBIL / GLC / IP / K / LDH / Na / PL / RALB / TBIL / TC / TG / TP / gamma-GTP: tissue Plasma

COC1=CC(=O)C[C@@H](C)[C@]12Oc1c(Cl)c(OC)cc(OC)c1C2=O [GRISEOFULVIN]
TERMINAL_BW (3 h): 211.3 g | APTT (3 h): 21.6 s | Bas (3 h): 0% | Eos (3 h): 0.4% | Fbg (3 h): 224.4 mg/dL | Hb (3 h): 13.4 g/dL | Ht (3 h): 39.4% | Lym (3 h): 76% | MCH (3 h): 21.7 pg | MCHC (3 h): 34.1% | MCV (3 h): 63.5 fL | Mono (3 h): 3% | Neu (3 h): 19.6% | PT (3 h): 12.9 s | Plat (3 h): 119.6 x10_4/uL | RBC (3 h): 620.8 x10_4/ul | Ret (3 h): 7.4% | WBC (3 h): 103.5 x10_2/uL | KIDNEY_L (3 h): 1 g | KIDNEY_R (3 h): 1 g | KIDNEY_TOTAL (3 h): 1.9 g | LIVER (3 h): 9.8 g | A/G (3 h): 1.9 | ALP (3 h): 1043.6 IU/L | ALT (3 h): 45.2 IU/L | AST (3 h): 71 IU/L | BUN (3 h): 10.8 mg/dL | CRE (3 h): 0.3 mg/dL | Ca (3 h): 10.8 mg/dL | Cl (3 h): 104.4 meq/L | DBIL (3 h): 0.2 mg/dL | GLC (3 h): 195.4 mg/dL | IP (3 h): 9.3 mg/dL | K (3 h): 4 meq/L | LDH (3 h): 129.8 IU/L | Na (3 h): 141.4 meq/L | PL (3 h): 167.6 mg/dL | RALB (3 h): 3.5 g/dL | TBIL (3 h): 0.2 mg/dL | TC (3 h): 85.8 mg/dL | TG (3 h): 97.4 mg/dL | TP (3 h): 5.4 g/dL | gamma-GTP (3 h): 1.4 IU/L | TERMINAL_BW (6 h): 210.2 g | APTT (6 h): 18.8 s | Bas (6 h): 0% | Eos (6 h): 0.8% | Fbg (6 h): 231.8 mg/dL | Hb (6 h): 13.8 g/dL | Ht (6 h): 41.1% | Lym (6 h): 79.4% | MCH (6 h): 20.9 pg | MCHC (6 h): 33.6% | MCV (6 h): 62.1 fL | Mono (6 h): 3.2% | Neu (6 h): 16% | PT (6 h): 12.7 s | Plat (6 h): 132.8 x10_4/uL | RBC (6 h): 662.4 x10_4/ul | Ret (6 h): 7.1% | WBC (6 h): 107.8 x10_2/uL | KIDNEY_L (6 h): 1 g | KIDNEY_R (6 h): 1 g | KIDNEY_TOTAL (6 h): 1.9 g | LIVER (6 h): 9 g | A/G (6 h): 1.7 | ALP (6 h): 1097.4 IU/L | ALT (6 h): 34.6 IU/L | AST (6 h): 67 IU/L | BUN (6 h): 8.6 mg/dL | CRE (6 h): 0.3 mg/dL | Ca (6 h): 10.7 mg/dL | Cl (6 h): 103.4 meq/L | DBIL (6 h): 0.098 mg/dL | GLC (6 h): 209.6 mg/dL | IP (6 h): 10 mg/dL | K (6 h): 3.9 meq/L | LDH (6 h): 157.4 IU/L | Na (6 h): 141.4 meq/L | PL (6 h): 138.8 mg/dL | RALB (6 h): 3.4 g/dL | TBIL (6 h): 0.2 mg/dL | TC (6 h): 73.4 mg/dL | TG (6 h): 63.2 mg/dL | TP (6 h): 5.4 g/dL | gamma-GTP (6 h): 1.2 IU/L | TERMINAL_BW (9 h): 209.9 g | APTT (9 h): 18.2 s | Bas (9 h): 0% | Eos (9 h): 1% | Fbg (9 h): 226 mg/dL | Hb (9 h): 13.5 g/dL | Ht (9 h): 39.7% | Lym (9 h): 72.6% | MCH (9 h): 21.4 pg | MCHC (9 h): 33.9% | MCV (9 h): 63.1 fL | Mono (9 h): 2.4% | Neu (9 h): 23.8% | PT (9 h): 12.9 s | Plat (9 h): 117.6 x10_4/uL | RBC (9 h): 628.8 x10_4/ul | Ret (9 h): 7.4% | WBC (9 h): 73.2 x10_2/uL | KIDNEY_L (9 h): 0.9 g | KIDNEY_R (9 h): 0.9 g | KIDNEY_TOTAL (9 h): 1.9 g | LIVER (9 h): 8.3 g | A/G (9 h): 1.7 | ALP (9 h): 1130.6 IU/L | ALT (9 h): 32.4 IU/L | AST (9 h): 59.8 IU/L | BUN (9 h): 11 mg/dL | CRE (9 h): 0.4 mg/dL | Ca (9 h): 10.4 mg/dL | Cl (9 h): 103.6 meq/L | DBIL (9 h): 0.078 mg/dL | GLC (9 h): 206 mg/dL | IP (9 h): 10.1 mg/dL | K (9 h): 4 meq/L | LDH (9 h): 100.8 IU/L | Na (9 h): 141.8 meq/L | PL (9 h): 148.2 mg/dL | RALB (9 h): 3.5 g/dL | TBIL (9 h): 0.1 mg/dL | TC (9 h): 79.8 mg/dL | TG (9 h): 41.2 mg/dL | TP (9 h): 5.5 g/dL | gamma-GTP (9 h): 1.2 IU/L | TERMINAL_BW (24 h): 224 g | APTT (24 h): 18.9 s | Bas (24 h): 0% | Eos (24 h): 1% | Fbg (24 h): 214.4 mg/dL | Hb (24 h): 13 g/dL | Ht (24 h): 39.3% | Lym (24 h): 79.2% | MCH (24 h): 21.6 pg | MCHC (24 h): 33% | MCV (24 h): 65.4 fL | Mono (24 h): 3% | Neu (24 h): 16.6% | PT (24 h): 12.8 s | Plat (24 h): 111.8 x10_4/uL | RBC (24 h): 601.4 x10_4/ul | Ret (24 h): 8% | WBC (24 h): 72.9 x10_2/uL | KIDNEY_L (24 h): 1.1 g | KIDNEY_R (24 h): 1 g | KIDNEY_TOTAL (24 h): 2.1 g | LIVER (24 h): 11.1 g | A/G (24 h): 1.7 | ALP (24 h): 884.4 IU/L | ALT (24 h): 37.6 IU/L | AST (24 h): 61.8 IU/L | BUN (24 h): 16 mg/dL | CRE (24 h): 0.4 mg/dL | Ca (24 h): 10.9 mg/dL | Cl (24 h): 104 meq/L | DBIL (24 h): 0.1 mg/dL | GLC (24 h): 208.8 mg/dL | IP (24 h): 7.5 mg/dL | K (24 h): 4.2 meq/L | LDH (24 h): 148.2 IU/L | Na (24 h): 141.4 meq/L | PL (24 h): 149 mg/dL | RALB (24 h): 3.4 g/dL | TBIL (24 h): 0.2 mg/dL | TC (24 h): 78 mg/dL | TG (24 h): 119.8 mg/dL | TP (24 h): 5.4 g/dL | gamma-GTP (24 h): 1.2 IU/L
